In US20080233159A1, “Home-use insecticide” (priority 2007, published 2008):

Experiments:
house flies = settings: microdrop method, prallethrin isomers, d/d-trans isomer = 100; cited from earlier work
[1] = system: adult male American cockroaches; experiment: Turntable method, test aerosols; assay type: in vivo; settings: 0.35 g/300 ml aerosol; for KT50 value: 1 second spray, 5 minutes exposure
Excerpt: (2-a) Turntable Method: A glass cylinder having an inner diameter of 20 cm and height of 43 cm was placed on a wooden stand and a glass pot (outer diameter: 15 cm, height: 15 cm) containing two adult male American cockroaches was attached directly beneath the cylinder by using a glass plate as a shutter. Test aerosol insecticides prepared in accordance with Example 1 were sprayed into the glass cylinder for 1 second. Five seconds later, the glass plate shutter was pulled out and the test cockroaches were exposed to the descending aerosol particles for 5 minutes. The range of times until the occurrence of knockdown and the approximate average times were determined followed by observation of mortality 24 hours later. This test was repeated six times.

American cockroaches = experiment: Residual contact method, test aerosols on decorative sheet; assay type: in vivo; settings: for Mortality after 72 hours, After 1 day of spray: 0.35 g/300 ml aerosol at 25 mL/m^2, 2 hours contact 1 day after spraying
Experimental: (2-b) Residual Contact Method: The test aerosols were sprayed onto a decorative sheet measuring 20 cm on a side at the rate of 25 mL/m^2. After 1 day of spraying, a glass ring measuring 12 cm in diameter was placed on the decorative sheet and five American cockroaches were contacted with the sheet for 2 hours inside the ring at 1, 7, 15 and 21 days after spraying followed by observation of mortality 72 hours later.

[2] = Solubility / compatibility with kerosene; assay type: physicochemical
female house flies = experiment: Comparative efficacy test by the microdrop method, subject compound and its seven other isomers; assay type: in vivo; settings: for Insecticidal Efficacy Relative efficacy ratio: subject compound = 100
Experimental: 2-Methyl-4-oxo-3-(2-propynyl)-2-cyclopenten-1-yl 2,2-dimethyl-3-(2,2-dichlorovinyl)cyclopropanecarboxylate has a total of eight isomers based on two asymmetric carbon atoms of the acid portion and one asymmetric carbon atom of the alcohol portion. Therefore, a comparative efficacy test was conducted on female house flies using the microdrop method for the subject compound and the other seven isomers.

[3] = system: House flies (female adults); experiment: Glass chamber method, test aerosols; assay type: in vivo; settings: for Mortality: 10 minutes exposure, kill rate after additional 24 hours; for KT50 value: glass chamber 0.216 m^3, 1 second spray
Experimental: Glass chamber method: test aerosol insecticides prepared in accordance with Example 1 were sprayed for 1 second in a glass chamber having a volume of 60×60×60 cm (0.216 m^3). House flies (in groups of about 25 female adults each) were released into the chamber 10 seconds later, and the numbers of test […] that fell to the ground and rolled over during 10 minutes of exposure were recorded over the course of time to determine the KT50 values followed by observation of the kill rate after an additional 24 hours.

| Compound | Relative efficacy ratio (house flies) | Insecticidal Efficacy LD50 (female house flies) [μg/insect] | Insecticidal Efficacy Relative efficacy ratio (female house flies) | further results |
| --- | --- | --- | --- | --- |
| 2-Methyl-4-oxo-3-(2-propynyl)-2-cyclopenten-1-yl 2,2-dimethyl-3-(2,2-dichlorovinyl)cyclopropanecarboxylate [Compound 2] | 39 | – | – | – |
| C#CCN1CC(=O)N(COC(=O)[C@@H]2C(C=C(C)C)C2(C)C)C1=O (mixture of isomers) [Imiprothrin, imiprothrin, reference compound] | – | – | – | Mortality after 24 hours [1]: 83%; KT50 value [1]: 51 s; Mortality after 72 hours, After 1 day of spray (American cockroaches): 0%; Solubility in / compatibility with kerosene [2]: extremely poor solubility in kerosene |
| C#CCC1=C(C)C(OC(=O)[C@H]2[C@H](C=C(Cl)Cl)C2(C)C)CC1=O (relative stereo) [Compound 1, (d)-2-methyl-4-oxo-3-(2-propynyl)-2-cyclopenten-1-yl (d)-trans-2,2-dimethyl-3-(2,2-dichlorovinyl)cyclopropanecarboxylate] | 100 | 0.0263 | 100 | Mortality ([3]; 0.15 g/300 ml aerosol): 93.3%; Mortality ([3]; 0.45 g/300 ml aerosol): 100%; KT50 value ([3]; 0.15 g/300 ml aerosol): 73 s; KT50 value ([3]; 0.45 g/300 ml aerosol): 36 s; Mortality after 24 hours [1]: 100%; KT50 value [1]: 102 s; Mortality after 72 hours, After 1 day of spray (American cockroaches): 100%; Mortality after 72 hours, After 7 days (American cockroaches; 0.35 g/300 ml aerosol at 25 mL/m^2, 2 hours contact 7 days after spraying): 100%; Mortality after 72 hours, After 15 days (American cockroaches; 0.35 g/300 ml aerosol at 25 mL/m^2, 2 hours contact 15 days after spraying): 100%; Mortality after 72 hours, After 21 days (American cockroaches; 0.35 g/300 ml aerosol at 25 mL/m^2, 2 hours contact 21 days after spraying): 100%; Solubility in / compatibility with kerosene [2]: satisfactory compatibility with solvents such as kerosene |
| C#CCC1=C(C)C(OC(=O)C2C(C=C(Cl)Cl)C2(C)C)CC1=O (stereo not drawn) [Compound 2, 2-Methyl-4-oxo-3-(2-propynyl)-2-cyclopenten-1-yl 2,2-dimethyl-3-(2,2-dichlorovinyl)cyclopropanecarboxylate] | – | 0.0415 | 63.0 | – |
| C#CCC1=C(C)C(OC(=O)C2C(C=C(Cl)Cl)C2(C)C)CC1=O (stereo not drawn) [Compound 3, 2-Methyl-4-oxo-3-(2-propynyl)-2-cyclopenten-1-yl 2,2-dimethyl-3-(2,2-dichlorovinyl)cyclopropanecarboxylate] | 17 | 0.245 | 11.0 | – |
| C#CCC1=C(C)C(OC(=O)C2C(C=C(Cl)Cl)C2(C)C)CC1=O (stereo not drawn) [Compound 4, 2-Methyl-4-oxo-3-(2-propynyl)-2-cyclopenten-1-yl 2,2-dimethyl-3-(2,2-dichlorovinyl)cyclopropanecarboxylate] | 13 | 0.376 | 7.0 | – |
| C#CCC1=C(C)C(OC(=O)C2C(C=C(Cl)Cl)C2(C)C)CC1=O (stereo not drawn) [Compound 5, 2-Methyl-4-oxo-3-(2-propynyl)-2-cyclopenten-1-yl 2,2-dimethyl-3-(2,2-dichlorovinyl)cyclopropanecarboxylate] | 1.3 | 0.337 | 7.8 | – |
| C#CCC1=C(C)C(OC(=O)C2C(C=C(Cl)Cl)C2(C)C)CC1=O (stereo not drawn) [Compound 6, 2-Methyl-4-oxo-3-(2-propynyl)-2-cyclopenten-1-yl 2,2-dimethyl-3-(2,2-dichlorovinyl)cyclopropanecarboxylate] | 0.4 | 0.526 | 5.0 | – |
| C#CCC1=C(C)C(OC(=O)C2C(C=C(Cl)Cl)C2(C)C)CC1=O (stereo not drawn) [Compound 7, 2-Methyl-4-oxo-3-(2-propynyl)-2-cyclopenten-1-yl 2,2-dimethyl-3-(2,2-dichlorovinyl)cyclopropanecarboxylate] | 0.2 | 3.29 | 0.8 | – |
| C#CCC1=C(C)C(OC(=O)C2C(C=C(Cl)Cl)C2(C)C)CC1=O (stereo not drawn) [Compound 8, 2-Methyl-4-oxo-3-(2-propynyl)-2-cyclopenten-1-yl 2,2-dimethyl-3-(2,2-dichlorovinyl)cyclopropanecarboxylate] | 0.2 | 5.30 | 0.5 | – |
| d-T80-phthalthrin [reference compound] | – | – | – | Mortality ([3]; 0.15 g/300 ml aerosol): 20.0%; Mortality ([3]; 0.45 g/300 ml aerosol): 39.2%; KT50 value ([3]; 0.15 g/300 ml aerosol): 204 s; KT50 value ([3]; 0.45 g/300 ml aerosol): 73 s; Mortality after 24 hours [1]: 33%; KT50 value [1]: >300 s |
